From patent US20060293241A1, “Pharmaceutical composition comprising a factor VII polypeptide and epsilon-aminocaproic acid” (Novo Nordisk HealthCare A/G, priority 2001, published 2006)

Legend:
[1] = tested on: Normal human plasma (NHP); assay: Clot lysis assay (Example 2), clot survival in NHP and NHP diluted 1:2 with plasma expander; format: biochemical; conditions: in combination with 40 nM FVIIa
Protocol: Clot lysis assay: Normal human plasma (NHP) and NHP diluted 1:2 with plasma expander Macrodex or HES 200/0.5 used clinically for maintaining blood pressure under surgical procedures was mixed with lipidated recombinant TF (Innovin 1:60,000), CaCl2 10 mM, +/−FVIIa 40 nM, phosfatidylcolin/phosphateidylserine vesicles 6 μM, tPA […] and +/−the indicated doses of e-aminocaproic acid (EACA). Clot survival was measured as the time for clot start until the time for clot lysis.

[2] = tested on: Normal human plasma diluted 10-fold; assay: Clot lysis assay (Example 1), turbidity at 650 nm; format: biochemical; conditions: in the presence of 10 nM FVIIa; t-PA 8 nM
Protocol: Clot lysis assay: Normal human plasma diluted 10-fold with buffer (20 mM HEPES, 150 mM NaCl, 5 mM CaCl, pH 7.4) containing Innovin (Dade Behring, 2000-fold dilution), rFVIIa (Novo Nordisk A/S Bagsvaerd, Denmark, various concentrations) and t-PA (American Diagnostica, 8 nM) was added to 96-well ELISA plates and turbidity at 650 nm was measured over time at room temperature. Where indicated, epsilon-Aminocaproic Acid (Sigma, various concentrations) was included.

For `NCCCCCC(=O)O` [EACA, epsilon-aminocaproic acid], the “effect on clot survival time” value [1] was “increase in clot survival time”, the “effect on clot lysis time” value [2] was “further prolongation of the clot lysis time” and the “epsilon-Aminocaproic Acid concentration at which effect on clot lysis time was optimal” value [2] was 1 µM.
